Test results: patent US4644085A, “Rooperol and its derivates” (Rooperol (NA) NV, priority 1985, dated 1987)
Values after ≈ are worked out from the molar mass of the structure shown.

Experiments:
[1] = test system: HUMAN CERVICAL CANCER HeLa ATCC No. CCL2; assay: Inhibition of cell growth: human cervical cancer HeLa; assay type: cell-based; conditions: 96 h, media, usually four days, read-out: MINIMUM INHIBITORY CONCENTRATIONS (RANGE) WHICH PRODUCE APPROXIMATELY 50% CELL GROWTH REDUCTION
Experimental: (§1) The cell cultures were grown under standard conditions at 37° C. in Eagle's Minimal Essential Medium (M.E.M., Gibco), with glutamine and non-essential amino acids, supplemented with 10% foetal calf serum (State Vaccine Institute, Cape Town). Cells for subcultures were obtained from 90-100% confluent cell cultures by trypsinisation with Ca^++ Mg^++ --free EDTA-Dulbecco Buffer, containing 0.25% trypsin. Trypsin was inactivated by placing the harvested cell suspension into M.E.M. containing 10% foetal calf serum. The cell suspensions were then suitably diluted to the final volume, depending on the number of cells obtained and the growth profile of the cell type. The diluted cell suspensions were then dispensed at the rate of 1.0 ml into prepared cell culture flasks containing 8.9 ml culture media. These cultures were incubated for 24 hours and the media changed before adding the test compounds.
(§2) The test compounds were dissolved in dimethylsulphoxide (Merck) and added at the rate of 0.1 ml to the media in a dilution to give the desired end concentration.
(§3) In each series of experiments, control cultures were treated with equivalent amounts of solvent without the test compound. The cultures were examined daily usually for a period of four days and cell growth and other cytopathic effects were records. Abnormal cell patterns and sizes were also determined during counting.
(iv) HeLa Human Cervical Cancer

MOUSE SARCOMA M(52)B = assay: Inhibition of cell growth: mouse sarcoma M(52)B; assay type: cell-based; conditions: 96 h, media, usually four days, read-out: MINIMUM INHIBITORY CONCENTRATIONS (RANGE) WHICH PRODUCE APPROXIMATELY 50% CELL GROWTH REDUCTION
Experimental: as §1, §2, §3
(i) M (52) B Mouse Sarcoma

HUMAN […] HOC = assay: Inhibition of cell growth: human oesophagal carcinoma HOC; assay type: cell-based; conditions: 96 h, read-out: MINIMUM INHIBITORY CONCENTRATIONS (RANGE) WHICH PRODUCE APPROXIMATELY 50% CELL GROWTH REDUCTION
Experimental: as §1, §2, §3
(iii) HOC Human Oesophagal Carcinoma

Acute toxicity in mice = conditions: mouse, in vivo, po, P.O., single dose in vegetable oil, 7 days observation, read-out: MINIMUM TOLERATED SINGLE DOSE
Experimental: (§4) Some compounds were subjected to preliminary acute toxicity tests in mice and rats. Solutions or suspensions of the selected compounds were prepared in vegetable oil. The volumes administered were kept constant at 10.0 ml per kg. In each case equal numbers of male and female animals were treated with a single dose. All animals were observed over 7 days for signs of toxic and/or pharmacodynamic effects. Necropsies were performed on all surviving animals.

Acute toxicity in rats = conditions: rat, in vivo, po, P.O., single dose in vegetable oil, 7 days observation, read-out: MINIMUM TOLERATED SINGLE DOSE
Experimental: as §4

P27-HUMAN MESOTHELIOMA = assay: Inhibition of cell growth: P27 human mesothelioma; assay type: cell-based; conditions: 96 h, media, usually four days, read-out: MINIMUM INHIBITORY CONCENTRATIONS (RANGE) WHICH PRODUCE APPROXIMATELY 50% CELL GROWTH REDUCTION
Experimental: as §1, §2, §3
(v) P27 Human Mesothelioma Cells

cancer = conditions: reported in EPO Patent Application No. 83103765.0; cited from earlier work
CHANG CO[…] No. CCL20.2 = assay: Inhibition of cell growth: Chang conjunctival; assay type: cell-based; conditions: 96 h, read-out: MINIMUM INHIBITORY CONCENTRATIONS (RANGE) WHICH PRODUCE APPROXIMATELY 50% CELL GROWTH REDUCTION
Experimental: as §1, §2, §3
(vii) Chang Chang Conjunctival cells

[2] = test system: "LOOT'S" CELLS HUMAN ADENOCARCINOMA; assay: Inhibition of cell growth: "Loot's" cells human adenocarcinoma; assay type: cell-based; conditions: 96 h, media, usually four days, read-out: MINIMUM INHIBITORY CONCENTRATIONS (RANGE) WHICH PRODUCE APPROXIMATELY 50% CELL GROWTH REDUCTION
Experimental: as §1, §2, §3
(vi) "Loots" cells Human Derived Adenocarcinoma

MOUSE MELANOMA B16-BL6 = assay: Inhibition of cell growth: mouse melanoma B16-BL6; assay type: cell-based; conditions: 96 h, media, usually four days, read-out: MINIMUM INHIBITORY CONCENTRATIONS (RANGE) WHICH PRODUCE APPROXIMATELY 50% CELL GROWTH REDUCTION
Experimental: as §1, §2, §3
(ii) Mel B16 BL06 Mouse Melanoma

COc1ccc(C#CC/C=C/c2ccccc2)cc1OC [Product 9]
IC50 [1]: 60 to 100 µg/mL (≈ 216 to 359 µM)

C(#Cc1ccc2c(c1)OCO2)C/C=C/c1ccc2c(c1)OCO2 [Product 7]
IC50 (MOUSE SARCOMA M(52)B): 60 to 80 µg/mL (≈ 196 to 261 µM)

COc1ccc(C#CC/C=C/c2ccc(OC)cc2)cc1 [Product 5]
IC50 (HUMAN […] HOC): ≥ 25 µg/mL

OC(CCl)CC#Cc1ccccc1 (centres unmarked) [Product 11]
IC50 [1]: 25 to 50 µg/mL (≈ 128 to 257 µM) | MTD at 168 h (Acute toxicity in mice): ≥ 1000 mg/kg

C=CCC#Cc1ccccc1 [Product 2]
IC50 (HUMAN […] HOC): 50 to 100 µg/mL (≈ 352 to 703 µM) | IC50 [1]: 50 to 75 µg/mL (≈ 352 to 527 µM) | MTD at 168 h (Acute toxicity in mice): ≥ 1000 mg/kg | MTD at 168 h (Acute toxicity in rats): 500 mg/kg

OCC#CC/C=C/c1ccccc1 [Product 31]
IC50 [1]: 25 to 50 µg/mL (≈ 145 to 290 µM)

COc1ccc(C#CC/C=C/c2ccc(OC)c(OC)c2)cc1OC [Product 8]
IC50 (MOUSE SARCOMA M(52)B): 60 to 80 µg/mL (≈ 177 to 236 µM) | IC50 (P27-HUMAN MESOTHELIOMA): 40 to 60 µg/mL (≈ 118 to 177 µM) | IC50 [1]: 60 to 100 µg/mL (≈ 177 to 296 µM)

C(#Cc1ccccc1)C/C=C/c1ccccc1 [Product 3]
IC50 (MOUSE SARCOMA M(52)B): 50 to 75 µg/mL (≈ 229 to 344 µM) | IC50 (P27-HUMAN MESOTHELIOMA): 25 to 50 µg/mL (≈ 115 to 229 µM) | IC50 (HUMAN […] HOC): 25 to 50 µg/mL (≈ 115 to 229 µM) | IC50 [1]: 40 to 60 µg/mL (≈ 183 to 275 µM) | MTD at 168 h (Acute toxicity in mice): 500 mg/kg | MTD at 168 h (Acute toxicity in rats): 1500 mg/kg

OC[C@H]1O[C@@H](Oc2ccc(C#CC/C=C/c3ccc(O[C@@H]4O[C@H](CO)[C@@H](O)[C@H](O)[C@H]4O)c(O)c3)cc2O)[C@H](O)[C@@H](O)[C@@H]1O [Hypoxoside, (E)-1,5-bis(3',4'-dihydroxyphenyl)pent-4-en-1-yne 4',4'-di-B-D-glucopyranoside]
anticancer activity (cancer): has anticancer activity

COc1ccc(C#CC(O)/C=C/c2ccco2)cc1OC (centres unmarked) [Product 15]
IC50 [1]: 25 to 50 µg/mL (≈ 87.9 to 176 µM)

COc1ccc(C#CC/C=C/c2ccccc2)cc1 [Product 6]
IC50 (HUMAN […] HOC): 10 to 20 µg/mL (≈ 40.3 to 80.5 µM) | IC50 [1]: 60 to 100 µg/mL (≈ 242 to 403 µM)

Brc1ccc(C#CC/C=C/c2ccccc2)cc1 [Product 10]
IC50 [1]: 25 to 50 µg/mL (≈ 84.1 to 168 µM)

OC(C#Cc1ccccc1)/C=C/c1ccco1 (centres unmarked) [Product 17]
IC50 (P27-HUMAN MESOTHELIOMA): 20 to 50 µg/mL (≈ 89.2 to 223 µM) | IC50 [1]: 20 to 25 µg/mL (≈ 89.2 to 111 µM) | MTD at 168 h (Acute toxicity in mice): 500 mg/kg | MTD at 168 h (Acute toxicity in rats): 500 mg/kg

C/C=C/C(O)C#CCO (centres unmarked) [Product 29]
IC50 [1]: 50 µg/mL (≈ 396 µM)

CCOC(=O)C(=Cc1ccccc1)CC#Cc1ccccc1 [Product 23]
IC50 (MOUSE SARCOMA M(52)B): 75 to 100 µg/mL (≈ 258 to 344 µM) | IC50 (CHANG CO[…] No. CCL20.2): 25 to 75 µg/mL (≈ 86.1 to 258 µM) | IC50 (HUMAN […] HOC): 20 to 50 µg/mL (≈ 68.9 to 172 µM) | IC50 [1]: 60 to 100 µg/mL (≈ 207 to 344 µM) | IC50 [2]: 25 to 50 µg/mL (≈ 86.1 to 172 µM) | MTD at 168 h (Acute toxicity in mice): 750 mg/kg

COc1ccc(C#CC(O)/C=C/c2ccccc2)cc1OC (centres unmarked) [Product 18]
IC50 [1]: 25 to 50 µg/mL (≈ 84.9 to 170 µM)

OC(C#Cc1ccccc1)C=C(Cl)c1ccccc1 (centres unmarked) [Product 19]
IC50 [1]: 20 to 40 µg/mL (≈ 74.4 to 149 µM) | MTD at 168 h (Acute toxicity in mice): 250 mg/kg

C=CCC#CCOC1CCCCO1 (centres unmarked) [Product 13]
IC50 [1]: 50 to 100 µg/mL (≈ 277 to 555 µM)

C=CC(O)C#Cc1ccccc1 (centres unmarked) [Product 20]
IC50 [1]: 25 to 50 µg/mL (≈ 158 to 316 µM)

OC(C#Cc1ccccc1)/C=C/c1ccccc1 (centres unmarked) [Product 16]
IC50 (MOUSE SARCOMA M(52)B): 20 to 40 µg/mL (≈ 85.4 to 171 µM) | IC50 (P27-HUMAN MESOTHELIOMA): 25 to 50 µg/mL (≈ 107 to 213 µM) | IC50 [1]: 25 to 50 µg/mL (≈ 107 to 213 µM) | IC50 [2]: 12.5 to 25 µg/mL (≈ 53.4 to 107 µM) | MTD at 168 h (Acute toxicity in mice): 500 mg/kg | MTD at 168 h (Acute toxicity in rats): 500 mg/kg | IC50 (MOUSE MELANOMA B16-BL6): 20 to 50 µg/mL (≈ 85.4 to 213 µM)

C=CC(=O)C#Cc1ccccc1 [Product 26]
IC50 (CHANG CO[…] No. CCL20.2): 2.5 to 10 µg/mL (≈ 16 to 64 µM) | IC50 [1]: 20 to 40 µg/mL (≈ 128 to 256 µM)

C/C=C/C(O)C#CCOC1CCCCO1 (centres unmarked) [Product 21]
IC50 [1]: 25 to 50 µg/mL (≈ 119 to 238 µM)

Oc1ccc(C#CC/C=C/c2ccc(O)c(O)c2)cc1O [Product 1, 3',3',4',4',-tetrahydroxyrooperol]
IC50 (MOUSE SARCOMA M(52)B): 12.5 to 25 µg/mL (≈ 44.3 to 88.6 µM) | IC50 (CHANG CO[…] No. CCL20.2): 20 to 25 µg/mL (≈ 70.8 to 88.6 µM) | IC50 (P27-HUMAN MESOTHELIOMA): 10 to 25 µg/mL (≈ 35.4 to 88.6 µM) | IC50 (HUMAN […] HOC): 25 to 50 µg/mL (≈ 88.6 to 177 µM) | IC50 [1]: 20 to 40 µg/mL (≈ 70.8 to 142 µM) | IC50 [2]: 12.5 to 25 µg/mL (≈ 44.3 to 88.6 µM) | IC50 (MOUSE MELANOMA B16-BL6): 10 to 25 µg/mL (≈ 35.4 to 88.6 µM)

C=CCC#CCO [Product 30]
IC50 [1]: 50 µg/mL (≈ 520 µM)

C(#Cc1ccccc1)CC1CO1 (centres unmarked) [Product 24]
IC50 [1]: 25 to 50 µg/mL (≈ 158 to 316 µM)

O=C(C#Cc1ccccc1)/C=C/c1ccccc1 [Product 25]
IC50 (CHANG CO[…] No. CCL20.2): 2.5 to 10 µg/mL (≈ 10.8 to 43.1 µM) | IC50 [1]: 5 to 10 µg/mL (≈ 21.5 to 43.1 µM) | IC50 (MOUSE MELANOMA B16-BL6): 12.5 to 25 µg/mL (≈ 53.8 to 108 µM)
